Biological target: T1, human CTPS1 (Homo sapiens, UniProt P17812)
T1 sequence (P17812 1-591): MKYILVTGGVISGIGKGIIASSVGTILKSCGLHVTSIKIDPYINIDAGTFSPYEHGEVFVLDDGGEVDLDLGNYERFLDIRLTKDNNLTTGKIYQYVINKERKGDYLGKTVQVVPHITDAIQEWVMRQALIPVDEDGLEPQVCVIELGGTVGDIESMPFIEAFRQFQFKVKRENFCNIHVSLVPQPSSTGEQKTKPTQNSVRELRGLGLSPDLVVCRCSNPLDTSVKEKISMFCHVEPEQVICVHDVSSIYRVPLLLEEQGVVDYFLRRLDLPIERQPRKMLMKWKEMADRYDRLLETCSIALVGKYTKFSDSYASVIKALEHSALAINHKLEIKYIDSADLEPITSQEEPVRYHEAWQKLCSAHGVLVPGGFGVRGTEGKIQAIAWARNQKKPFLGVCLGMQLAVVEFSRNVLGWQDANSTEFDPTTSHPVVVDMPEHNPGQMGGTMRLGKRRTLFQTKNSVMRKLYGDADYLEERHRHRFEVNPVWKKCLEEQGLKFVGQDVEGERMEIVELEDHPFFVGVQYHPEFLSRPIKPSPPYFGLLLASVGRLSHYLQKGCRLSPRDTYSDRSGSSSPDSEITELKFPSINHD
Test: ADP-Glo assay, human CTPS1 enzyme inhibition
Type: biochemical
Conditions: wild-type human CTPS1, 25 nM enzyme; ADP-Glo; read-out: ADP-Glo_WT_hCTPS1—25 nM_IC50 (IC50)
Outline: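 ADP-Glo luminescence quantified ADP produced by 25 nM purified human CTPS1 (full length, FLAG-His tagged) at 25° C within the linear phase. Final substrates: ATP 120 μM, UTP 160 μM, GTP 60 μM, L-glutamine 100 μM; 1% DMSO; pH 7.4 HEPES buffer with Mg2+, KCl, DTT. Compound pre-incubated with enzyme 10 min, then with ATP/UTP 10 min.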

| SMILES | IC50 [nM] |
| --- | --- |
| C[C@H](CO)[C@H](NC(=O)c1ncc(-c2cnn3ccc(Cl)cc23)s1)c1cc(NS(=O)(=O)C2CC2)ccn1 [I-233, 5-(5-chloropyrazolo[1,5-a]pyridin-3-yl)-N-((1S,2S)-1-(4-(cyclopropanesulfonamido)pyridin-2-yl)-3-hydroxy-2-methylpropyl)thiazole-2-carboxamide] | 5 to 25 |
| CCOc1cncc(-c2cnc(C(=O)N[C@@H](c3cc(NS(=O)(=O)C4CC4)ccn3)[C@@H](C)COC)s2)n1 [I-235, N-((1R,2R)-1-(4-(cyclopropanesulfonamido)pyridin-2-yl)-3-methoxy-2-methylpropyl)-5-(6-ethoxypyrazin-2-yl)thiazole-2-carboxamide] | 5 to 25 |
| CCOc1cncc(-c2cnc(C(=O)N[C@@H](CO[C@H]3CCOC3)c3cc(NS(=O)(=O)C4CC4)ccn3)s2)n1 [I-238, N-((R)-1-(4-(cyclopropanesulfonamido)pyridin-2-yl)-2-(((S)-tetrahydrofuran-3-yl)oxy)ethyl)-5-(6-ethoxypyrazin-2-yl)thiazole-2-carboxamide] | 25 to 50 |
| CCOc1cncc(-c2cnc(C(=O)N[C@@H](CO[C@@H]3CCOC3)c3cc(NS(=O)(=O)C4CC4)ccn3)s2)n1 [I-239, N-((R)-1-(4-(cyclopropanesulfonamido)pyridin-2-yl)-2-(((R)-tetrahydrofuran-3-yl)oxy)ethyl)-5-(6-ethoxypyrazin-2-yl)thiazole-2-carboxamide] | 5 to 25 |
| CCOc1cncc(-c2cnc(C(=O)N[C@H](CO[C@@H]3CCOC3)c3cc(NS(=O)(=O)C4CC4)ccn3)s2)n1 [I-240, N-((S)-1-(4-(cyclopropanesulfonamido)pyridin-2-yl)-2-(((R)-tetrahydrofuran-3-yl)oxy)ethyl)-5-(6-ethoxypyrazin-2-yl)thiazole-2-carboxamide] | 5 to 25 |
| CCOc1cncc(-c2cnc(C(=O)N[C@H](CO[C@H]3CCOC3)c3cc(NS(=O)(=O)C4CC4)ccn3)s2)n1 [I-241, N-((S)-1-(4-(cyclopropanesulfonamido)pyridin-2-yl)-2-(((S)-tetrahydrofuran-3-yl)oxy)ethyl)-5-(6-ethoxypyrazin-2-yl)thiazole-2-carboxamide] | 5 to 25 |

Other lines, results leading:

| IC50 [nM] | SMILES |
| --- | --- |
| 5 to 25 | C[C@@H](CO)[C@H](NC(=O)c1ncc(-c2cnn3ccc(Cl)cc23)s1)c1cc(NS(=O)(=O)C2CC2)ccn1 [I-232, 5-(5-chloropyrazolo[1,5-a]pyridin-3-yl)-N-((1S,2R)-1-(4-(cyclopropanesulfonamido)pyridin-2-yl)-3-hydroxy-2-methylpropyl)thiazole-2-carboxamide] |
| ≤ 5 | CCOc1cncc(-c2cnc(C(=O)N[C@@H](c3cc(NS(=O)(=O)C4CC4)ccn3)[C@H](C)COC)s2)n1 [I-234, N-((1R,2S)-1-(4-(cyclopropanesulfonamido)pyridin-2-yl)-3-methoxy-2-methylpropyl)-5-(6-ethoxypyrazin-2-yl)thiazole-2-carboxamide] |
| ≤ 5 | CCOc1cncc(-c2cnc(C(=O)N[C@H](c3cc(NS(=O)(=O)C4CC4)ccn3)[C@@H](C)COC)s2)n1 [I-236, N-((1S,2R)-1-(4-(cyclopropanesulfonamido)pyridin-2-yl)-3-methoxy-2-methylpropyl)-5-(6-ethoxypyrazin-2-yl)thiazole-2-carboxamide] |
| ≤ 5 | CCOc1cncc(-c2cnc(C(=O)N[C@H](c3cc(NS(=O)(=O)C4CC4)ccn3)[C@H](C)COC)s2)n1 [I-237, N-((1S,2S)-1-(4-(cyclopropanesulfonamido)pyridin-2-yl)-3-methoxy-2-methylpropyl)-5-(6-ethoxypyrazin-2-yl)thiazole-2-carboxamide] |
| ≤ 5 | CCOc1cncc(-c2cnc(C(=O)N[C@H](c3cccc(NS(=O)(=O)C(F)F)c3)[C@H](C)CO)s2)n1 [I-242, N-((1S,2S)-1-(3-((difluoromethyl)sulfonamido)phenyl)-3-hydroxy-2-methylpropyl)-5-(6-ethoxypyrazin-2-yl)thiazole-2-carboxamide] |
